Laboratory results published in US20200253877A1, “GEMCABENE, PHARMACEUTICALLY ACCEPTABLE SALTS THEREOF, COMPOSITIONS THEREOF AND METHODS OF USE THEREFOR” (NEUROBO PHARMACEUTICALS, INC., priority 2018, published 2020).

Legend:
[1] = test system: STAM™ mice, a murine model of NASH-HCC; assay: Murine STAM model of NASH-HCC: whole blood, plasma and liver biochemistry; conditions: for fasting whole blood glucose concentrations: 3 days prior to termination, 8 h fasting, oral daily wk 6-9; for fasting whole blood glucose concentrations / whole blood glucose levels / liver triglyceride content: gemcabene Form 1 30, 100, 300 mg/kg; for plasma ALP levels: vs vehicle-treated NASH group; for plasma triglyceride concentrations: gemcabene Form 1 30, 100, 300 mg/kg (dose-dependent manner)
[2] = test system: STAM™ mice, a murine model of NASH-HCC; assay: Murine STAM model of NASH-HCC: liver histology (H&E, NAFLD Activity Score, Sirius red fibrosis area); format: in vivo, mouse; design: key to NAS (mean ± SD) / NAFLD Activity Score: NAS = unweighted sum of steatosis, lobular inflammation, ballooning scores; conditions: for fibrosis area (Sirius red-positive area): all gemcabene Form 1 groups (30, 100, 300 mg/kg)
Text: The present invention further provides methods for reducing a fibrosis score or a nonalcoholic fatty liver disease activity score in a subject, comprising administering to a subject in need thereof an effective amount of a tablet of the invention, gemcabene calcium salt hydrate Crystal Form 4, gemcabene calcium salt hydrate Crystal Form 5 or gemcabene calcium salt hydrate Crystal Form 6. The nonalcoholic fatty liver disease activity score (NAS or NAFLD score) is a composite score that measures changes in NAFLD during therapeutic trials. NAS is a composite score comprised of three components that includes scores for steatosis, lobular inflammation and hepatocyte ballooning (Table 36). NAS is the unweighted sum of the scores for steatosis, lobular inflammation and hepatocyte ballooning. Steatosis grade is quantified as the percentage of hepatocytes that contain fat droplets. The fibrosis stage of the liver is evaluated separately from NAS by histological evaluation of the intensity of Sirius red staining of collagen in the pericentral region of liver lobules.
A study was performed to evaluate the efficacy of gemcabene calcium salt hydrate Crystal Form 1 having a PSD90 of 52 μm as measured by laser light diffraction, in treating non-alcoholic steatosis hepatitis (NASH) in the murine STAM™ model of NASH-HCC.
Briefly, two-day old neonatal C57BL/6 male mice were administered low-dose streptozotocin (STZ), and were subsequently fed a HFC diet from 4 weeks of age. In this model, the mice typically develop liver steatosis and diabetes, reaching steatohepatitis within 3 weeks, followed by cirrhosis within 8 weeks, and carcinoma within 16 weeks. In the current study, mice were administered daily oral gemcabene calcium salt hydrate Crystal Form 1 starting at week 6 of age and were sacrificed at week 9. […] These STAM™ groups were orally administered from week 6 one of the following: water-vehicle, gemcabene calcium salt hydrate Crystal Form 1 at 30, 100 and 300 mg/kg daily, or telmisartan ([…]®) 10 mg/kg daily. […] All groups were sacrificed at week 9. Vehicle, gemcabene calcium salt hydrate Crystal Form 1, or telmisartan were administered by oral gavage once daily.
For Hematoxylin and Eosin (H&E) staining, sections were cut from paraffin blocks of liver tissue prefixed in Bouin's solution and stained with Lillie-Mayer's Hematoxylin (Muto Pure Chemicals Co., Ltd., Japan) and eosin solution (Wako Pure Chemical Industries). NAFLD Activity score (NAS) was calculated according to the criteria of Kleiner, D E. Et al., Hepatology, 2005; 41:1313-1321. To visualize collagen deposition, Bouin's fixed liver sections were stained using picro-Sirius red solution (Waldeck, Germany). For Masson Trichrome staining, the sections were stained with Masson's Trichrome staining Kit (Sigma, USA) according to the manufacturer's instructions.
For quantitative analysis of fibrosis area, bright field images of Sirius red-stained sections were captured around the central vein using a digital camera (DFC295; Leica, Germany) at 200-fold magnification, and the positive areas in 5 fields/section were measured using ImageJ software (National Institute of Health, USA). Samples were analyzed in a blinded fashion.

[3] = 12-week placebo-controlled study in hypercholesterolemia patients on statins: safety and tolerability; format: in vivo; conditions: 600 mg QD, 12 weeks
Experimental: High-risk patients including some, but not all those with heterozygous familial hypercholesterolemia (HeFH) or atherosclerotic cardiovascular disease (ASCVD) on appropriate diet and stable statin therapy for at least 12 weeks and LDL-C ≥100 mg/dL (2.59 mmol/L) and triglycerides <500 mg/dL (5.65 mmol/L) were randomized into a 12-week, placebo-controlled, parallel-group, double-blind study to assess the efficacy of gemcabene calcium salt hydrate Crystal Form 1 (PSD90=52 μm) 600 mg (300-mg film-coated Tablet D×2) QD on LDL-C and other lipoproteins and hsCRP (high-sensitivity C-reactive protein). Safety and tolerability were also evaluated. The patients were stratified by high- or moderate-intensity statin therapy, with or without ezetimibe, with a target of 52 patients (26 patients on 600 mg gemcabene calcium salt hydrate Crystal Form 1 as administered by 2×film-coated Tablet D and 26 patients on placebo (“placebo”)) in each stratum. […] Mean baseline LDL-C for all patients was approximately 134 mg/dL (3.48 mmol/L) with most patients in the high-intensity statin stratum on atorvastatin and most patients in the moderate-intensity stratum on either simvastatin or atorvastatin.
33 of 54 patients (61.1%) in the film-coated Tablet D group and 24 of 51 patients (47.1%) in the placebo group who reported at least one AE during the study. […]

[4] = vs vehicle-treated STAM mice, telmisartan 10 mg/kg
[5] = at termination, gemcabene Form 1 100 and 300 mg/kg, telmisartan 10 mg/kg
[6] = at termination, vs vehicle-treated STAM mice, telmisartan 10 mg/kg
[7] = vs vehicle-treated STAM mice, gemcabene Form 1 100 and 300 mg/kg, telmisartan 10 mg/kg
[8] = vs vehicle-treated STAM mice, gemcabene Form 1 30 and 300 mg/kg, telmisartan 10 mg/kg
[9] = 10 mg/kg PO QD, Day 18 after 8 hours of fasting, mean ± SD, n = 8
[10] = 10 mg/kg PO QD, at termination (Day 21), mean ± SD, n = 7

**Q.** Which “fasting whole blood glucose concentrations” value [1, 4] does the source give for CC(C)(CCCCOCCCCC(C)(C)C(=O)O)C(=O)O.[Ca] [6-(5-Carboxy-5-methyl-hexyloxy)-2,2-dimethylhexanoic acid calcium] here?
**A.** no significant differences

**Q.** What about the “plasma CRP levels” value ([1]; STAM mice) of the same molecule?
**A.** decreased

**Q.** What about the “plasma ALP levels” value [1, 5] of the same molecule?
**A.** significant increases

**Q.** What about the plasma creatinine levels ([1]; at termination, vs vehicle-treated STAM group, gemcabene Form 1 300 mg/kg) of the same molecule?
**A.** significant increase

**Q.** What about the “plasma ALT levels” value ([1]; at termination, vs vehicle-treated STAM mice, gemcabene Form 1 100 mg/kg) of the same molecule?
**A.** significant decrease

**Q.** And the “whole blood glucose levels” value [1, 6]?
**A.** no significant differences

**Q.** And the “plasma total cholesterol concentrations” value ([1]; vs vehicle-treated STAM mice, gemcabene Form 1 30 mg/kg)?
**A.** no significant difference

**Q.** What about the plasma triglyceride concentrations [1, 4] of the same molecule?
**A.** significant decreases

**Q.** And the liver triglyceride content [1, 4]?
**A.** no significant differences

**Q.** And the “plasma total cholesterol concentrations” value [1, 7]?
**A.** significant increases

**Q.** What about the “micro- and macro-vesicular hepatic fat deposition, hepatocellular ballooning and inflammatory cell infiltration (H&E)” value ([2]; STAM mice) of the same molecule?
**A.** diminished

**Q.** What about the “fibrosis area (Sirius red-positive area)” value [2, 4] of the same molecule?
**A.** significant decreases

**Q.** And the “NAFLD Activity Score (NAS)” value ([2]; vs vehicle-treated STAM mice, gemcabene Form 1 100 mg/kg (trending lower))?
**A.** no significant difference

**Q.** What about the “steatosis score and ballooning score” value ([2]; vs vehicle-treated STAM mice, gemcabene Form 1 300 mg/kg) of the same molecule?
**A.** significant decrease

**Q.** And the “NAFLD Activity Score (NAS)” value [2, 8]?
**A.** significant reduction

**Q.** What about the “lobular inflammation and ballooning scores” value [2, 8] of the same molecule?
**A.** lower

**Q.** And the “steatosis (H&E-stained liver sections)” value [2, 8]?
**A.** less steatosis

**Q.** What about the “serious adverse events and deaths” value [3] of the same molecule?
**A.** no serious adverse events (AEs) and no deaths

**Q.** For CCCc1nc2c(C)cc(-c3nc4ccccc4n3C)cc2n1Cc1ccc(-c2ccccc2C(=O)O)cc1 [telmisartan, reference compound], which Fasting blood glucose [1, 9] is on record?
**A.** 742 ± 90 mg/dL

**Q.** And the Plasma insulin [1, 9]?
**A.** 0.16 ± 0.04 ng/mL

**Q.** And the “Liver free fatty acid” value [1, 10]?
**A.** 46.8 ± 10.7 pEq/g liver

**Q.** And the Liver hydroxyproline [1, 10]?
**A.** 0.91 ± 0.12 μg/mg total protein

**Q.** And the Liver triglyceride [1, 10]?
**A.** 31.7 ± 6.4 mg/g liver

**Q.** And the Non-fasting blood glucose [1, 10]?
**A.** 856 ± 62 mg/dL

**Q.** What about the “Plasma ApoC-III” value [1, 10] of the same molecule?
**A.** 6.2 ± 0.7 gg/mL

**Q.** And the “Plasma CRP” value [1, 10]?
**A.** 3.0 ± 0.4 gg/mL

**Q.** What about the Plasma adiponectin [1, 10] of the same molecule?
**A.** 6.8 ± 0.9 gg/mL

**Q.** And the Plasma alanine aminotransferase [1, 10]?
**A.** 39 ± 15 U/L

**Q.** And the Plasma alkaline phosphatase [1, 10]?
**A.** 567 ± 104 U/L

**Q.** What about the Plasma aspartate aminotransferase [1, 10] of the same molecule?
**A.** 121 ± 38 U/L

**Q.** And the “Plasma blood urea nitrogen” value [1, 10]?
**A.** 85.0 ± 17.4 mg/dL

**Q.** What about the Plasma creatinine [1, 10] of the same molecule?
**A.** 0.1 ± 0.0 mg/dL

**Q.** And the Plasma gamma-glutamyl transferase [1, 10]?
**A.** 1 ± 0 U/L

**Q.** And the Plasma ketone body [1, 10]?
**A.** 8.11 ± 3.27 m M

**Q.** What about the Plasma leptin [1, 10] of the same molecule?
**A.** 2.9 ± 1.1 ng/mL

**Q.** And the Plasma total bilirubin [1, 10]?
**A.** 0.3 ± 0.1 mg/dL

**Q.** And the Plasma total cholesterol [1, 10]?
**A.** 208 ± 19 mg/dL

**Q.** What about the Plasma triglyceride [1, 10] of the same molecule?
**A.** 569 ± 256 mg/dL

**Q.** What about the “fasting whole blood glucose concentrations” value [1, 4] of the same molecule?
**A.** significant increase

**Q.** What about the “plasma ALP levels” value [1, 5] of the same molecule?
**A.** significant increases

**Q.** What about the “whole blood glucose levels” value [1, 6] of the same molecule?
**A.** significant increase

**Q.** And the “plasma BUN levels” value [1, 6]?
**A.** significant increase

**Q.** And the plasma triglyceride concentrations [1, 4]?
**A.** no significant difference

**Q.** What about the liver triglyceride content [1, 4] of the same molecule?
**A.** significant decrease

**Q.** And the “plasma total cholesterol concentrations” value [1, 7]?
**A.** significant increases

**Q.** And the “Lobular Inflammation score 1: number of mice” value ([2]; 10 mg/kg PO QD, n = 7)?
**A.** 4

**Q.** What about the “NAS (mean ± SD)” value ([2]; 10 mg/kg PO QD, n = 7) of the same molecule?
**A.** 2.6 ± 1.0

**Q.** What about the “Steatosis score 0: number of mice” value ([2]; 10 mg/kg PO QD, n = 7, score 0 = <5%) of the same molecule?
**A.** 1

**Q.** What about the “Lobular Inflammation score 0: number of mice” value ([2]; 10 mg/kg PO QD, n = 7, score 0 = No foci) of the same molecule?
**A.** 2

**Q.** And the “Hepatocyte Ballooning score 0: number of mice” value ([2]; 10 mg/kg PO QD, n = 7, score 0 = None)?
**A.** 2

**Q.** What about the “Steatosis score 1: number of mice” value ([2]; 10 mg/kg PO QD, n = 7, score 1 = 5-33%) of the same molecule?
**A.** 6

**Q.** What about the “Hepatocyte Ballooning score 1: number of mice” value ([2]; 10 mg/kg PO QD, n = 7, score 1 = Few balloon cells) of the same molecule?
**A.** 4

**Q.** What about the “Lobular Inflammation score 2: number of mice” value ([2]; 10 mg/kg PO QD, n = 7, score 2 = 2-4 foci/200x) of the same molecule?
**A.** 1

**Q.** And the “Hepatocyte Ballooning score 2: number of mice” value ([2]; 10 mg/kg PO QD, n = 7, score 2 = Many cells/prominent ballooning)?
**A.** 1

**Q.** What about the “NAFLD Activity Score” value ([2]; 10 mg/kg, STAM mice) of the same molecule?
**A.** 2.6

**Q.** And the Sirius red-positive area ([2]; 10 mg/kg, STAM mice)?
**A.** 0.48%

**Q.** And the “fibrosis area (Sirius red-positive area)” value [2, 4]?
**A.** significant decreases

**Q.** And the “NAFLD Activity Score (NAS)” value [2, 8]?
**A.** significant reduction

**Q.** What about the “lobular inflammation and ballooning scores” value [2, 8] of the same molecule?
**A.** lower

**Q.** What about the “steatosis (H&E-stained liver sections)” value [2, 8] of the same molecule?
**A.** less steatosis
